Laboratory results reported in patent US20260028326A1, “COMPOUND BASED ON ISOINDOLINE-SUBSTITUTED GLUTARIMIDE BACKBONE AND USE THEREOF” (GLUETACS THERAPEUTICS (SHANGHAI) CO., LTD., priority 2022, published 2026).

Legend:
[1] = system: Daudi cells; assay: Tumor cell proliferation IC50 (CCK-8), Daudi; details: Homo sapiens, read-out: IC50 for inhibiting the proliferation of tumor cells, Daudi;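 note: cell viability read with CCK-8 reagent after compound exposure of Daudi cells, IC50 derived from plotted growth inhibition curves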
Experimental: (§1) The tumor cells used herein were cultured in a cell culture medium listed in table A at 37° C. in an incubator with 5% CO2.
(§2) After the cells were treated with the compounds of the present disclosure for a period of time, the cell viability detection reagent was added to the culture medium for cell viability assessment according to the instructions provided with the CCK-8 kit. […] The growth inhibition of the compounds of the present disclosure on cells was plotted by Prism Graphpad software, and the IC50 values of the compounds of the present disclosure were calculated therefrom.

[2] = system: Mino cells; assay: Tumor cell proliferation IC50 (CCK-8), Mino; details: Homo sapiens, 72 h, read-out: IC50 for inhibiting the proliferation of tumor cells, Mino;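 note: cell viability assessed with CCK-8 reagent after compound exposure, IC50 derived from plotted growth inhibition curves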
Experimental: as §1, §2

[3] = target: IKZF3 protein (Homo sapiens (Human), UniProt Q96SW2+Q9UKT9); assay: Western-blot assay of substrate protein degradation in hPBMC, IKZF3; format: cell-based; details: hPBMC cells, compound 500 nM, 24 hours, Western blot
[4] = system: MM.1S cells; assay: Tumor cell proliferation IC50 (CCK-8), MM.1S; details: Homo sapiens, MM1.S, 72 h, read-out: IC50 for inhibiting the proliferation of tumor cells, MM.1S;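 note: viability of cultured cells read by CCK-8 reagent after compound exposure, growth inhibition curves fitted to derive IC50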
Experimental: as §1, §2

[5] = target: IKZF1 protein (Homo sapiens (Human), UniProt Q13422+Q96SW2); assay: Western-blot assay of substrate protein degradation in hPBMC, IKZF1; format: cell-based; details: hPBMC cells, compound 500 nM, 24 hours, Western blot
[6] = target: GSPT1 protein (Homo sapiens (Human), UniProt P15170+Q96SW2); assay: Western-blot assay of substrate protein degradation in hPBMC, GSPT1; format: cell-based; details: hPBMC cells, compound 500 nM, 24 hours, Western blot
[7] = target: human Cereblon WT GST-tagged protein (Homo sapiens (Human), UniProt Q96SW2); assay: CRBN-binding affinity, HTRF (CEREBLON BINDING kit)
In short: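 GST-tagged human WT Cereblon incubated with compound, then Thalidomide-Re tracer and anti-GST Eu antibody added. Displacement read by HTRF, reported as CRBN binding inhibition rate against blank control wells without protein.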

[8] = system: CCRF-CEM cells; assay: Tumor cell proliferation IC50 (CCK-8), CCRF-CEM; details: Homo sapiens, 96 h, read-out: IC50 for inhibiting the proliferation of tumor cells, CCRF-CEM;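 note: cell viability measured with CCK-8 reagent after compound treatment, IC50 taken from plotted growth inhibition curves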

Sequence of IKZF1 protein (Q13422 whole entry): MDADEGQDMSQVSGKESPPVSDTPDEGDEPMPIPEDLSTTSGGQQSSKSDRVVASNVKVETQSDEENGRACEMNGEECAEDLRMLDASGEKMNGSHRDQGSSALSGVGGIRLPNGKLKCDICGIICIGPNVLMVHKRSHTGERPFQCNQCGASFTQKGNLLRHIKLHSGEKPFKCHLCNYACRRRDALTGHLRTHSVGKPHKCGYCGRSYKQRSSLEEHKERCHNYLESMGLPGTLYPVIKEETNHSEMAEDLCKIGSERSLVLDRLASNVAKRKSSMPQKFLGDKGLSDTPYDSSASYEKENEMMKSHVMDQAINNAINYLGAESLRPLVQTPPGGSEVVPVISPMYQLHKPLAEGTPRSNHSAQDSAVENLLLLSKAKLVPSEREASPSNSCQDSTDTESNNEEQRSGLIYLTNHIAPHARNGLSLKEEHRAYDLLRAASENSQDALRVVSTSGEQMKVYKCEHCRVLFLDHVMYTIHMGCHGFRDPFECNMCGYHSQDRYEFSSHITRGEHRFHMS
Sequence of IKZF1 protein (Q96SW2 whole entry): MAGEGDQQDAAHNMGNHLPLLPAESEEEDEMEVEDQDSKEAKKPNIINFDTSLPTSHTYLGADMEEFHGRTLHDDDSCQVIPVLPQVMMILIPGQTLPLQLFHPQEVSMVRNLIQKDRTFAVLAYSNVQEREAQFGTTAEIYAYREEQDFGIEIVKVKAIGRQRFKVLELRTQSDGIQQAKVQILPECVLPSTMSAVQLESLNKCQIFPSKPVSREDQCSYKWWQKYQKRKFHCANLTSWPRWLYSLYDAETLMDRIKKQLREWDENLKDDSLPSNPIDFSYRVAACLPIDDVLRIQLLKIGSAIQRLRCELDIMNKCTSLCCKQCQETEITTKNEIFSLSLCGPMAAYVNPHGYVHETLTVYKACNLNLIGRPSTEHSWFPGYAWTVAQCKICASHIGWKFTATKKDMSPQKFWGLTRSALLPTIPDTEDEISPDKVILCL
Sequence of IKZF1 protein (Q16531 whole entry partner): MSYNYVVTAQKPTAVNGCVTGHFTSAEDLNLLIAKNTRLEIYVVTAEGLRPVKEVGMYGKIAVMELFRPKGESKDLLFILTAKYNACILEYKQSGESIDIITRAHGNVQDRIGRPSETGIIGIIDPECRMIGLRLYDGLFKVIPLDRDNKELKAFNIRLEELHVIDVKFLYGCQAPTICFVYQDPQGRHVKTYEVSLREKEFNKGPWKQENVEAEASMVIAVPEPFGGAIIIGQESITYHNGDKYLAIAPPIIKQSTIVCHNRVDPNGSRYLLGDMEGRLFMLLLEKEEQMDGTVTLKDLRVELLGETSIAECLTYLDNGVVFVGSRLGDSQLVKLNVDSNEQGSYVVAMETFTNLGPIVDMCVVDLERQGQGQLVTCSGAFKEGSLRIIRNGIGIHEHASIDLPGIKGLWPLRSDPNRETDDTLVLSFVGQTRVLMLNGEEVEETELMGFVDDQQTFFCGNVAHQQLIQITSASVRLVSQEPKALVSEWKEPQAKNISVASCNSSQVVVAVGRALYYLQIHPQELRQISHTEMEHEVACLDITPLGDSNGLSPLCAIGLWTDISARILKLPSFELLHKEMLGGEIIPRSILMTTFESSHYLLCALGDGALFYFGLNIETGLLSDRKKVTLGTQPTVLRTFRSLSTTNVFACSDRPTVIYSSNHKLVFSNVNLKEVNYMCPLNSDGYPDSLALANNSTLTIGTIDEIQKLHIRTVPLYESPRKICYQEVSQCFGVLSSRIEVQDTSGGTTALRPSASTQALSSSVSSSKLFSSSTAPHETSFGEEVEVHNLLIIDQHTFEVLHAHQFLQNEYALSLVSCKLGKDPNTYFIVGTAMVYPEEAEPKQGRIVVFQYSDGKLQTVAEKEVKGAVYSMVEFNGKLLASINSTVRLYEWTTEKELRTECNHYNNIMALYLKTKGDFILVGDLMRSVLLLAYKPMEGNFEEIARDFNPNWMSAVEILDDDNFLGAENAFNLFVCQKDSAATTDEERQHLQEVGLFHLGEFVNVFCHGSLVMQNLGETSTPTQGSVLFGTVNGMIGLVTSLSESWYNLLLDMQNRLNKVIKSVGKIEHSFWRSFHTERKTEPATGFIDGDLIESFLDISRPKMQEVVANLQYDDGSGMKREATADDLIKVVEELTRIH
Sequence of GSPT1 protein (P15170 whole entry): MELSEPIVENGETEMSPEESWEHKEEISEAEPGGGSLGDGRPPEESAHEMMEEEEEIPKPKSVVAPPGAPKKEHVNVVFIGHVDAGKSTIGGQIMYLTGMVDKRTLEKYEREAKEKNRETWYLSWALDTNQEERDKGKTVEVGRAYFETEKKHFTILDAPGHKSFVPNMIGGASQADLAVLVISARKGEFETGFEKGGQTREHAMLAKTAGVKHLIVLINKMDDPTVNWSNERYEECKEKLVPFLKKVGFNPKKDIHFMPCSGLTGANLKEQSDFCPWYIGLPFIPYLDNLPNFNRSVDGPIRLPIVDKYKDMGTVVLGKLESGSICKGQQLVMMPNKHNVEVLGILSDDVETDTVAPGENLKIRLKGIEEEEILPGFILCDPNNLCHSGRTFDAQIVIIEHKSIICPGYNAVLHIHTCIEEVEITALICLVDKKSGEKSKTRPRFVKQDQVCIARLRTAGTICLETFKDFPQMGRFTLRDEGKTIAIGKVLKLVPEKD
Sequence of GSPT1 protein (Q96SW2 whole entry): as the sequence (Q96SW2 whole entry) above
Sequence of GSPT1 protein (Q16531 whole entry partner): as the sequence (Q16531 whole entry partner) above
Sequence of IKZF3 protein (Q9UKT9 whole entry): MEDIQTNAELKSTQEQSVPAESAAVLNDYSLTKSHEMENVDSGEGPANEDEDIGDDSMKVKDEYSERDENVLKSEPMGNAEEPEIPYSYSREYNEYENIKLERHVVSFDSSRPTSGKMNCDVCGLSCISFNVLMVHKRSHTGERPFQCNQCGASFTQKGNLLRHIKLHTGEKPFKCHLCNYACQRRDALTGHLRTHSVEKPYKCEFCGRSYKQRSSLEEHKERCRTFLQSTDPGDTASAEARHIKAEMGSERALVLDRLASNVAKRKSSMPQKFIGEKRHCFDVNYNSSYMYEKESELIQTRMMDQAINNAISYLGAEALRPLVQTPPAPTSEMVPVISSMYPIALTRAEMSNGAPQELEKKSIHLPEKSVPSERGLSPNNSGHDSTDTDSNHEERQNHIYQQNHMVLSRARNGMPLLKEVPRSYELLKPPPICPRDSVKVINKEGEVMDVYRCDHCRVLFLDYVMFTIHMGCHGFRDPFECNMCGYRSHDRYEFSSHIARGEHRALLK
Sequence of IKZF3 protein (Q96SW2 whole entry): as the sequence (Q96SW2 whole entry) above
Sequence of IKZF3 protein (Q16531 whole entry partner): as the sequence (Q16531 whole entry partner) above
Sequence of human Cereblon WT GST-tagged protein (Q96SW2 whole entry): as the sequence (Q96SW2 whole entry) above

| Structure (SMILES) | IC50 [1] | IC50 [2] | IC50 [4] | IC50 [7] | IC50 [8] | residual substrate protein level, IKZF3 [3] | residual substrate protein level, IKZF1 [5] | residual substrate protein level, GSPT1 [6] |
| --- | --- | --- | --- | --- | --- | --- | --- | --- |
| CC1(C)CCC(CN2CCN(Cc3ccc4c(c3)CN(C3CCC(=O)NC3=O)C4=O)CC2)=C(c2cncs2)C1 (stereo not shown) [GT-05791, 3-(5-((4-((4,4-dimethyl-2-(thiazol-5-yl)cyclohex-1-en-1-yl)methyl)piperazin-1-yl)methyl)-1-oxoisoindolin-2-yl)piperidine-2,6-dione] | 500 to 1000 nM | 10 to 50 nM | 10 to 50 nM | 730 nM | – | A (A represents a residual substrate protein level of <50%) | A (A represents a residual substrate protein level of <50%) | B (B represents a residual substrate protein level of >50%) |
| CC1(C)CC(c2ccc(Cl)cc2)=C(CN2CCN(Cc3ccc4c(c3)CN(C3CCC(=O)NC3=O)C4=O)CC2)CO1 (stereo not shown) [GT-05672, 3-(5-((4-((4-(4-chlorophenyl)-6,6-dimethyl-5,6-dihydro-2H-pyran-3-yl)methyl)piperazin-1-yl)methyl)-1-oxoisoindolin-2-yl)piperidine-2,6-dione] | 500 to 1000 nM | 10 to 50 nM | 10 to 50 nM | 580 nM | – | A (A represents a residual substrate protein level of <50%) | A (A represents a residual substrate protein level of <50%) | A (A represents a residual substrate protein level of <50%) |
| O=C1CCC(N2Cc3cc(CN4CCN(Cc5cnccc5-c5ccc(Cl)cc5)CC4)ccc3C2=O)C(=O)N1 (stereo not shown) [GT-05703, 3-(5-((4-((4-(4-chlorophenyl)pyridin-3-yl)methyl)piperazin-1-yl)methyl)-1-oxoisoindolin-2-yl)piperidine-2,6-dione] | 100 to 500 nM | 10 to 50 nM | 5 to 10 nM | 530 nM | – | A (A represents a residual substrate protein level of <50%) | A (A represents a residual substrate protein level of <50%) | B (B represents a residual substrate protein level of >50%) |
| O=C1CCC(N2Cc3cc(CN4CCN(Cc5ccc(-c6cccs6)s5)CC4)ccc3C2=O)C(=O)N1 (stereo not shown) [GT-05624, 3-(5-((4-([2,2′-bithiophen]-5-ylmethyl)piperazin-1-yl)methyl)-1-oxoisoindolin-2-yl)piperidine-2,6-dione] | 500 to 1000 nM | 10 to 50 nM | 100 to 500 nM | 470 nM | – | A (A represents a residual substrate protein level of <50%) | A (A represents a residual substrate protein level of <50%) | B (B represents a residual substrate protein level of >50%) |
| O=C1CCC(N2Cc3cc(CN4CC5(C4)CN(Cc4ccccc4-c4ccc(Cl)cc4)C5)ccc3C2=O)C(=O)N1 (stereo not shown) [GT-05709, 3-(5-((6-((4′-chloro-[1,1′-biphenyl]-2-yl)methyl)-2,6-diazaspiro[3.3]heptan-2-yl)methyl)-1-oxoisoindolin-2-yl)piperidine-2,6-dione] | – | 50 to 100 nM | 10 to 50 nM | 660 nM | 10 to 50 nM | A (A represents a residual substrate protein level of <50%) | A (A represents a residual substrate protein level of <50%) | A (A represents a residual substrate protein level of <50%) |
| O=C1CCC(N2Cc3cc(CN4CCN(Cc5ccc(-c6ccc(Cl)cc6)s5)CC4)ccc3C2=O)C(=O)N1 (stereo not shown) [GT-05625, 3-(5-((4-((5-(4-chlorophenyl)thiophen-2-yl)methyl)piperazin-1-yl)methyl)-1-oxoisoindolin-2-yl)piperidine-2,6-dione] | 100 to 500 nM | 50 to 100 nM | 100 to 500 nM | 1670 nM | – | B (B represents a residual substrate protein level of >50%) | B (B represents a residual substrate protein level of >50%) | B (B represents a residual substrate protein level of >50%) |

Continued, in another order:

| IC50 [1] | IC50 [2] | IC50 [4] | IC50 [7] | IC50 [8] | Structure (SMILES) | residual substrate protein level, IKZF3 [3] | residual substrate protein level, IKZF1 [5] | residual substrate protein level, GSPT1 [6] |
| --- | --- | --- | --- | --- | --- | --- | --- | --- |
| 500 to 1000 nM | 10 to 50 nM | 100 to 500 nM | 310 nM | – | O=C1CCC(N2Cc3cc(CN4CCN(Cc5ccc(-c6ccco6)cc5)CC4)ccc3C2=O)C(=O)N1 (stereo not shown) [GT-05693, 3-(5-((4-(4-(furan-2-yl)benzyl)piperazin-1-yl)methyl)-1-oxoisoindolin-2-yl)piperidine-2,6-dione] | A (A represents a residual substrate protein level of <50%) | B (B represents a residual substrate protein level of >50%) | B (B represents a residual substrate protein level of >50%) |
| 100 to 500 nM | < 5 nM | – | 760 nM | – | O=C1CCC(N2Cc3cc(CN4CCN(Cc5ccc(-c6ccncc6)nc5)CC4)ccc3C2=O)C(=O)N1 (stereo not shown) [GT-05633, 3-(5-((4-([2,4′-bipyridin]-5-ylmethyl)piperazin-1-yl)methyl)-1-oxoisoindolin-2-yl)piperidine-2,6-dione] | A (A represents a residual substrate protein level of <50%) | A (A represents a residual substrate protein level of <50%) | B (B represents a residual substrate protein level of >50%) |
| 50 to 100 nM | 10 to 50 nM | 10 to 50 nM | 700 nM | – | O=C1CCC(N2Cc3c(ccc(CN4CCN(CC5=C(c6ccc(F)cc6)CCCC5)CC4)c3F)C2=O)C(=O)N1 (stereo not shown) [GT-05466, 3-(4-fluoro-5-((4-((4′-fluoro-3,4,5,6-tetrahydro-[1,1′-biphenyl]-2-yl)methyl)piperazin-1-yl)methyl)-1-oxoisoindolin-2-yl)piperidine-2,6-dione] | A (A represents a residual substrate protein level of <50%) | A (A represents a residual substrate protein level of <50%) | A (A represents a residual substrate protein level of <50%) |
| 10 to 50 nM | < 5 nM | 100 to 500 nM | 720 nM | – | O=C1CCC(N2Cc3cc(CN4CCN(Cc5ccc(-c6ccc(Cl)cc6)nc5)CC4)ccc3C2=O)C(=O)N1 (stereo not shown) [GT-05632, 3-(5-((4-((6-(4-chlorophenyl)pyridin-3-yl)methyl)piperazin-1-yl)methyl)-1-oxoisoindolin-2-yl)piperidine-2,6-dione] | – | – | – |
| 100 to 500 nM | 5 to 10 nM | 500 to 1000 nM | 230 nM | – | O=C1CCC(N2Cc3cc(CN4CCN(Cc5ccc(-c6ccco6)s5)CC4)ccc3C2=O)C(=O)N1 (stereo not shown) [GT-05780, 3-(5-((4-((5-(furan-2-yl)thiophen-2-yl)methyl)piperazin-1-yl)methyl)-1-oxoisoindolin-2-yl)piperidine-2,6-dione] | A (A represents a residual substrate protein level of <50%) | A (A represents a residual substrate protein level of <50%) | A (A represents a residual substrate protein level of <50%) |
